Like-named read-outs stand apart in the source and are kept apart here.
Experiments:
HTLV-III p15 = HTLV-III p15 expression in H9-HTLV-III cells, immunofluorescence; type: cell-based; settings: for Expression of p15 (in %): none = 100
Description: H9-cells (M. Popovic, M. G. Sarngadharan, E. Reed, R. C. Gallo, Science: 224, 1984, 497-500) were treated with Polybren® (hexadimethrinbromide available on the market; 2 μg/ml) for 30 minutes at 37° C., washed free of Polybren and infected with 2×10^8 HTLV-III virus particles (isolated from H9 cell cultures by the method of M. Popovic; see above) per 4×10^5 H9 cells. Some assays which were not treated with drugs were used as positive controls, while different concentrations of the compound to be tested (avarone or avarol and their derivatives) were added to the test samples. The HTLV-III reverse transcriptase activity of these cultures was analyzed in the manner described above.
The immunofluorescence assays were carried out on methanol:acetone (1:1)-fixed cells with the use of monoclonal antibodies (from the mouse) against HTLV-III p15 (core protein of MW=15,000) and p24 (core protein of MW=24,000). Both of these proteins are marker proteins which indicate the presence of virus particles in the cells. The HTLV-III Infected cells with or without drug treatment were fixed on toxoplasmosis slides. After fixation with methanol-acetone (1:1) for 30 minutes at room temperature, the slides were stored in sealed plastic containers at -20° C. until use. The monoclonal antibodies were added to the cells, incubated at room temperature in a moisture chamber for one hour and washed for two hours with PBS (phospate buffered saline) containing 0.25% Triton X-100. The cells were then treated for one hour with fluorescein (FITC) labeled goat anti-mouse IgG (Capell Labs.) and washed overnight with PBS buffer containing 0.25% Triton X-100. Fifty percent glycerin was added to the slides and the cell fluorescence was determined with a Zeiss fluorescence microscope.
When the target H9-cells were treated with the HTLV-III isolate and cultivated without the compounds to be tested, the H9-cells were infected and, as established by indirect immunofluorescence assay, there was expression of the p24 and p15 protein. After incubation of the H9-HTLV-III cells with the compounds to be tested, a practically complete protective effect was observed.

IgM titer = assay: Serum IgM titer of SRBC-immunized mice; type: in vivo, mouse; settings: 30 mg/kg i.p.
Description: The plaque test of Jerne and Nordin (Science 140: 405-406, 1963) was used with the modification given by Cunningham and Szenberg (Immunolog. 14: 599-601; 1968). Briefly, 8 male NMRI mice per group (20-22 g) were immunized on day 0 by i.p. injection of 5×10^8 SRBC in 0.5 ml saline. Treatment with avarol was done i.p. either from day 0 to day +4 or from day -4 to day 0. One hour after the last drug administration, the animals were killed by a blow on the head and bled. The spleens were removed and a single cell suspension was prepared by teasing the pooled spleens through a 120-μm mesh sieve. After lysing the erythrocytes by 0.15M NH4 Cl, the cells were washed twice in Hank's balanced salt solution containing 29 ml of 7.5% NaHCO3 and 10 ml of 1M HEPES buffer solution per one liter. The cells were resuspended in 2 ml per spleen. Six Cunningham chambers per group were filled with a mixture of 0.5 ml of a suitable dilution of spleen cells (generally 1:100), 0.5 ml of a suspension of SRBC (10^9 /ml) and 125 μl of normal guinea pig complement. After 90-120 min of incubation at 37° C., the number of plaques was counted. Plaques per spleen or per 10^6 spleen cells were calculated.
The pooled blood of 8 mice was centrifuged to obtain the serum. IgM and IgG titers were measured with the mercaptoethanol method (Hudson, L. and Hay, F. C. Practical Immunology, Blackwell Sci., Oxford; 1983).

lymphoma cell = settings: previous studies; cited from earlier work
HTLV-III p24 = type: cell-based; settings: for Expression of p24 (in %): none = 100
[1] = tested on: L5178y mouse lymphoma cells; assay: L5178y cell growth; type: cell-based; settings: 72 hours
Description: mouse lymphoma cells were grown in roller tube cultures in Eagle's minimum essential medium, supplemented with 10% horse serum (Muller et al., Cancer Res. 39: 1102-1107; 1979 and Muller et al. Cancer Res. 45: 4822-4826; 1985). […] The cell growth was determined by cell count with a computer supported cell-counter (128-channel counter; Cytocomp, system Michaelis: BIOTRON-Medizinelektronik, Mainz; West Germany). The ED50 (±SD) was estimated by logit regression (L. Sachs, […], Springer-Verlag, Berlin 1984). The mathematical evaluation of the fractional inhibitory concentration indices (FIC indices) of Avarol/Avarone-DDC combinations was performed according to published equations and experimental conditions (Muller et al., Cancer Lett. 1: 127-132; 1976; and Phillips et al., Antimicrob. Agents Chemother. 9: 736-740, 1976). […] In this set of experiments, […] cells were incubated with Avarol in the absence or presence of the established SODase inhibitor DDC.

[2] = tested on: DTH to oxazolone in NMRI mice; assay: Contact allergy to oxazolone; type: in vivo, mouse; settings: 3-30 mg/kg i.p., day -1 to +2 or day +6 to +8, P>0.05
Description: Allergic contact dermatitis against oxazolone was produced according to the method of Asherson and Ptak (Immunol. 15: 405-416; 1968) as well as those of Bure and Degrand (Agents and Actions 9: 534; 1979). Male NMRI mice (20-22 g; 10/group) were sensitized with 100 μl of a 2% oxazolone in acetone solution onto the shaved abdomen (day 0). Animals were treated with avarol (i.p.) daily from day -1 to +2 or from day +6 to +8; control group was treated with deoxymethasone (Casella-Hoechst) as a standard per os at a daily dose of 30 mg/kg for the same period of time as for avarol. Seven days after sensitization 10 μl of a 3% oxazolane (this concentration was previously found to give more reproducible results than the lower 2% concentration) solution were topically applied onto the inner side of one ear, whereas the other ear received only acetone. […] Treated groups were compared with controls using the U-test.

CC1=CCC[C@H]2[C@](C)(Cc3cc(O)ccc3O)[C@@H](C)CC[C@]12C [Avarol, 2-[(1R)-1,2,3,4,4a,7,8,8aα-octahydro-1β,2β,4aβ,5-tetramethyl-1-naphthylmethyl]-1,4-benzenediol]
Expression of p15 (in %) (HTLV-III p15; 0.1 μg/ml): 37%
Expression of p15 (in %) (HTLV-III p15; 1 μg/ml): 12%
Expression of p15 (in %) (HTLV-III p15; 5 μg/ml): 12%
expression of HTLV-III protein p15, in words (HTLV-III p15; H9-HTLV-III cells): significant reduction
Titer IgM (IgM titer; from 0 to +4 days, untreated 256): 256
Titer IgM (IgM titer; from -4 to 0 days, untreated 512): 512
concentration inhibiting lymphoma cell growth by 50% (lymphoma cell): 0.3 to 0.4 µg/mL
sensitivity of T-cell derived leukemia cells vs normal T- or B-lymphocytes (lymphoma cell): more sensitively inhibited
Expression of p24 (in %) (HTLV-III p24; 0.1 μg/ml): 28%
Expression of p24 (in %) (HTLV-III p24; 1 μg/ml): 14%
Expression of p24 (in %) (HTLV-III p24; 5 μg/ml): 14%
expression of HTLV-III protein p24, in words (HTLV-III p24; H9-HTLV-III cells): significant reduction
IC50 ([1]; DDC 1.46 μM, read-out: ED50 with coaddition of DDC): 270 ± 40 nM
IC50 ([1]; DDC 1.71 μM, read-out: ED50 with coaddition of DDC): 108 ± 15 nM
IC50 ([1]; Mus musculus, L5178Y, cell growth, absence of DDC, read-out: ED50 (the source's name)): 940 ± 140 nM
influence on DTH to oxazolone, in words [2]: did not influence significantly

From patent US4939177A, “Use of avarol for the control of AIDS and ARC” (Merz + Co. GmbH & Co., priority 1986, dated 1990)
